Measurements as given in PubChem BioAssay (NCI).
“And” between values parts separate entries of the source, which are not always exact repeats. Identical values can stand only once.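 All cell lines were grown in 96-well plates and treated with compound for 48 hours. GI50 is the concentration that inhibits growth by half. TGI: total growth inhibition.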

Key:
Test in all cases: NCI anticancer screen, dose series, 48 h
UO-31 renal = tested on: UO-31 renal
OVCAR-4 ovarian = tested on: OVCAR-4 ovarian
OVCAR-5 ovarian = tested on: OVCAR-5 ovarian
HCT-15 colon = tested on: HCT-15 colon
SNB-19 CNS = tested on: SNB-19 CNS
MOLT-4 leukemia = tested on: MOLT-4 leukemia
SF-295 CNS = tested on: SF-295 CNS
HL-60(TB) leukemia = tested on: HL-60(TB) leukemia
HCC-2998 colon = tested on: HCC-2998 colon
T-47D breast = tested on: T-47D breast

Row | Compound | TGI (UO-31 renal) | TGI (OVCAR-4 ovarian) | TGI (OVCAR-5 ovarian) | TGI (HCT-15 colon) | TGI (SNB-19 CNS) | TGI (MOLT-4 leukemia) | TGI (SF-295 CNS) | TGI (HL-60(TB) leukemia) | TGI (HCC-2998 colon) | GI50 (UO-31 renal) | GI50 (OVCAR-4 ovarian) | GI50 (OVCAR-5 ovarian) | GI50 (HCT-15 colon) | GI50 (SNB-19 CNS) | GI50 (MOLT-4 leukemia) | GI50 (SF-295 CNS) | GI50 (HCC-2998 colon) | GI50 (T-47D breast) | TGI (T-47D breast) | GI50 (HL-60(TB) leukemia)
1 | CC(C)S(=O)(=O)n1c(N)nc2ccc(/C(=N/O)c3ccccc3)cc21 | 47 µM | > 100 µM | 58.7 µM | 79.3 µM | > 100 µM | 52.2 µM | > 100 µM | 44.3 µM | 53.2 µM | – | – | – | – | – | – | – | – | – | – | –
2 | O=C(O)c1oc2ccc([N+](=O)[O-])c3c2c1CCC3 | > 100 µM | > 100 µM | > 100 µM | – | > 100 µM | – | > 100 µM | > 100 µM | > 100 µM | – | – | – | – | – | – | – | – | – | – | –
3 | COCCn1cc(-c2csc(-c3c[nH]c4ccc(F)cc34)n2)c2cccnc21 | > 100 µM | > 100 µM | > 100 µM | > 100 µM | > 100 µM | > 100 µM | > 100 µM | – | > 100 µM | 4.41 µM | 2.59 µM | 10.1 µM | 2.35 µM | 98 µM | 5.56 µM | 3.2 µM | 4.54 µM | – | – | –
4 | Cc1ccc(NC(=O)CCC(=O)C(C#N)c2ccc(Cl)cc2)cc1C (stereo not given) | > 100 µM | > 100 µM | > 100 µM | > 100 µM | > 100 µM | > 100 µM | > 100 µM | > 100 µM | > 100 µM | – | – | – | – | – | – | – | – | – | – | –
5 | S=C1OC2C3C4CC5C3C(O1)C1C5C4C21 (stereo not given) | > 100 µM | > 100 µM | > 100 µM | > 100 µM | > 100 µM | > 100 µM | > 100 µM | > 100 µM | > 100 µM | – | – | – | – | – | – | – | – | – | – | –
6 | C/C(=N\N=C(N)N)c1sc(-c2nc(C)c(/C(C)=N/N=C(N)N)s2)nc1C | > 100 µM | > 100 µM | > 100 µM | > 66.9 µM | > 100 µM | > 100 µM | > 100 µM | 88.2 µM | > 100 µM | – | – | – | – | – | – | – | – | – | – | –
7 | Cc1cc(C(=O)NCCN(C)C)c2nc3ccccc3nc2c1 | > 59.6 µM | 19.5 µM | 15.2 µM | 27.6 µM | 73.5 µM | 5.97 µM | > 27.8 µM | > 100 µM | 35.2 µM | – | – | – | – | – | – | – | – | – | – | –
8 | O=C1C=Cc2noc3cccc1c23 | 15.3 µM | 4.82 µM | 28.4 µM | 10.8 µM | 31.3 µM | > 100 µM | 32.8 µM | 3.67 µM | 28.6 µM | – | – | – | – | – | – | – | – | – | – | –
9 | ClCc1ccc(Cn2cnc3ncnc(Cl)c32)cc1 | 66.7 µM | – | 19.7 µM | – | 3.15 µM | – | 5.07 µM | – | 2.87 µM | 4.82 µM | – | 6.26 µM | – | 1.72 µM | – | 2.06 µM | 1.42 µM | 1.29 µM | 2.86 µM | –
10 | C/C(=N\NC(=S)Nc1ccc([N+](=O)[O-])cc1S(=O)(=O)O)c1ccccn1 | > 100 µM | 95.3 µM | > 100 µM | > 100 µM | – | > 100 µM | > 100 µM | 84.8 µM | > 100 µM | – | – | – | – | – | – | – | – | – | – | –
11 | C(=C1/CCCCC([n+]2ccccc2)=N1)/c1ccccc1 | > 100 µM | > 100 µM | > 100 µM | > 100 µM | – | > 100 µM | > 100 µM | > 100 µM | > 100 µM | – | – | – | – | – | – | – | – | – | – | –
12 | Cc1ccc(S(=O)(=O)ON=C2CC(c3ccccc3)N(C)C(c3ccccc3)C2)cc1 (stereo not given) | 35.3 µM and 49.1 µM | 38.4 µM and 40.3 µM | 92.6 µM | 34.7 µM and 44.9 µM | 92.8 µM and > 100 µM | 53.2 µM and > 100 µM | 52.4 µM and 65.5 µM | > 100 µM | 32.3 µM | – | – | – | – | – | – | – | – | – | – | 7.25 µM and 19.9 µM
13 | COc1ccc(-c2nc(N)nc(-c3cc(C)ccc3O)c2Cl)cc1 | > 100 µM | 53.3 µM | > 100 µM | > 100 µM | > 100 µM | > 100 µM | > 100 µM | > 100 µM | > 100 µM | – | – | – | – | – | – | – | – | – | – | –
14 | Clc1ccc(CCN2CCOCC2)c(Cl)c1 | > 100 µM | > 100 µM | > 100 µM | > 100 µM | > 100 µM | > 100 µM | > 100 µM | > 100 µM | > 100 µM | – | – | – | – | – | – | – | – | – | – | –
15 | CCCCCCCCSC(SCCCCCCCC)=C1C(=O)N(c2ccccc2)N=C1C | > 100 µM | – | > 100 µM | > 100 µM | > 100 µM | 82.2 µM | > 100 µM | 43.7 µM | > 100 µM | – | – | – | – | – | – | – | – | – | – | –
16 | Cc1nc(Nc2ccc([N+](=O)[O-])cc2)sc1C(=O)/C=C/c1ccc(N(C)C)cc1 | > 100 µM | – | > 100 µM | > 100 µM | > 100 µM | > 100 µM | > 100 µM | > 100 µM | > 100 µM | – | – | – | – | – | – | – | – | – | – | –
17 | Clc1cccc(C2SCc3nc4ccccc4n32)c1Cl (stereo not given) | 25.8 µM | 27 µM | 27.1 µM | 36.5 µM | 33.1 µM | 41.9 µM | 30.4 µM | 20.3 µM | – | – | – | – | – | – | – | – | – | – | – | –
18 | O=[N+]([O-])C(=C(c1ccccc1)c1ccccc1)[N+](=O)[O-] | 36.6 µM | 28.6 µM | 34.5 µM | 32.6 µM | 31.3 µM | 22.7 µM | 26.3 µM | 8.74 µM | 24 µM | – | – | – | – | – | – | – | – | – | – | –
19 | Cc1ccc(C)c2sc3cc(=O)ccc-3nc12 | > 100 µM | 48.1 µM | 74.1 µM | > 100 µM | > 100 µM | 69.6 µM | > 100 µM | 38.8 µM | > 100 µM | – | – | – | – | – | – | – | – | – | – | –
20 | C=C1C(=O)C23C(CC(OC(C)=O)C1[C@@H]2OC(C)=O)C1(C)C(OC(C)=O)CCC(C)(C)C1C[C@@H]3OC(C)=O (stereo not given in full) | 3.19 µM | 3.41 µM | 3.27 µM | 2.52 µM | 3.31 µM | – | 2.86 µM | 2.51 µM | 3.24 µM | – | – | – | – | – | – | – | – | – | – | –
21 | CC12CC(=O)NN=C1c1ccccc1C2 (stereo not given) | > 100 µM | – | > 100 µM | > 100 µM | > 100 µM | > 100 µM | > 100 µM | > 100 µM | > 100 µM | – | – | – | – | – | – | – | – | – | – | –
22 | C[P+](C)(CC(F)(F)F)c1ccccc1 | > 100 µM | – | > 100 µM | > 100 µM | > 100 µM | > 100 µM | > 100 µM | > 100 µM | > 100 µM | – | – | – | – | – | – | – | – | – | – | –
23 | COc1ccc(/C=C/CO)cc1OC | > 100 µM | – | > 100 µM | > 100 µM | > 100 µM | > 100 µM | > 100 µM | – | > 100 µM | – | – | – | – | – | – | – | – | – | – | –
24 | Cc1cc(Br)cc(C)c1NC(=O)C(=O)C(C(=O)c1ccc(Cl)c(Cl)c1)C1OC(=O)c2ccccc21 (stereo not given) | > 100 µM | > 100 µM | > 100 µM | > 100 µM | > 100 µM | > 100 µM | > 100 µM | > 100 µM | > 100 µM | – | – | – | – | – | – | – | – | – | – | –
